Results taken from patent US10857211B2, “Genomic instability markers in Fanconi anemia” (Children's Hospital Medical Center, priority 2014, dated 2020).
“Also recorded” adds a separate entry of the source.

What was measured:
SCC1 cells [1] = assay: Cell growth in culture, SCC1 cells; type: cell-based, human; settings: for growth of FANCD2sh-treated SCC1 cells: NSC23766: 48 hours culture
SCC47 cells [2] = assay: Cell growth in culture, SCC47 cells; type: cell-based, human; settings: NB-DNJ
SCC1 cells [3] = assay: Matrigel-coated transwell invasion assay, SCC1 cells; type: cell-based, human; settings: for invasion of FANCD2sh-treated SCC1 cells: Matrigel-coated transwells, 22 hours
Procedure: (§1) FIGS. 23A and B show a pathway loss promotes invasion of squamous tumor cells. Indicated cells were treated with the indicated shRNA vectors and then plated in Matrigel-coated transwells. After 22 hours, invasive cells were quantified.
After 22 hours, invasive cells were quantified. Representative images are shown. Experiments were carried out in duplicate, and standard deviation calculated.
FA pathway loss promoted motility and invasion. To assess motility and invasiveness of FA-deficient cells, the Matrigel cell invasion assay was used. […] To rule out off-target effects of the lentivirus, an shRNA-resistant EGFP-FANCD2 construct was introduced. The EGFP-FANCD2 fusion protein was expressed in GFP+ cells (but not GFP− cells), and was sufficient to block invasion of FANCD2sh-treated SCC1 cells (FIG. 23B). Similarly, FANCA and FANCJ knockdown stimulated invasion in SCC1 cells (FIG. 23C). […] Gains in cellular motility were also observed for normal oral keratinocytes (NOKS): 1.3% of NTsh normal oral keratinocytes (NOKS) cells plated were able to migrate through matrigel. This invasion frequency doubled upon FANCD2 knockdown, highlighting potential relevance for FA loss for the motility of normal cells (data not shown).

SCC47 cells [4] = assay: Matrigel-coated transwell invasion assay, SCC47 cells; type: cell-based, human; settings: 100 uM NB-DNJ, 48 hrs; NTsh, FANCD2sh, FANCJsh
Procedure: as §1
(§2) FIGS. 27I and J show NTsh-, FANCD2sh- and FANCJsh-treated SCC1 and SCC47 cells were cultured for 48 hrs in 100 uM NB-DNJ.
GM3 is the precursor of complex gangliosides (FIG. 27E), a key component of cell membranes, and enriched in lipid rafts (LRs). GM3 and its derivative GM1 localize to microdomains in apical epithelial membranes (68) and GM3 depletion was reported to blocked wound healing in diabetic mice (69). Further, GM3 was elevated in head and neck tumors (compared to adjacent normal tissue) (70) and in serum of HNSCC patients, and was predictive of tumor size and relapse (71). On the other hand, links between GM3 levels and FA have not yet been reported. Targeted analyses by UPLC-MS/MS in normal cutaneous (NIKS) and normal oral (NOKS) keratinocytes, as well as in UM-SCC1 cells verified GM3 regulation across the major carbohydrate component lengths (i.e., from d34:1 to d44:2) (FIG. 27F-H). […] To assess the functional significance of ganglioside accumulation in FA cells, the effect of a ganglioside synthesis inhibitor N-butyldeoxynojirimycin (NB-DNJ)72 was measured on invasion driven by FA pathway loss. […]

GM3 = GM3 levels by targeted MS in NB-DNJ treated cells; type: cell-based, human; settings: 100 uM NB-DNJ, 48 hrs; NTsh-, FANCD2sh- and FANCJsh-treated SCC1 and SCC47 cells
Procedure: as §2
GM3 is the precursor of complex gangliosides (FIG. 27E), a key component of cell membranes, and enriched in lipid rafts (LRs). GM3 and its derivative GM1 localize to microdomains in apical epithelial membranes (68) and GM3 depletion was reported to blocked wound healing in diabetic mice (69). Further, GM3 was elevated in head and neck tumors (compared to adjacent normal tissue) (70) and in serum of HNSCC patients, and was predictive of tumor size and relapse (71). On the other hand, links between GM3 levels and FA have not yet been reported. Targeted analyses by UPLC-MS/MS in normal cutaneous (NIKS) and normal oral (NOKS) keratinocytes, as well as in UM-SCC1 cells verified GM3 regulation across the major carbohydrate component lengths (i.e., from d34:1 to d44:2) (FIG. 27F-H). […] To assess the functional significance of ganglioside accumulation in FA cells, the effect of a ganglioside synthesis inhibitor N-butyldeoxynojirimycin (NB-DNJ)72 was measured on invasion driven by FA pathway loss. NTsh-, FANCD2sh- and FANCJsh-treated SCC1 and SCC47 cells were exposed to NB-DNJ (or vehicle), and subjected to Matrigel invasion assays (FIG. 23).

SCC1 cells [5] = assay: Phalloidin staining, quantification of intercellular projections in SCC1 cells; type: cell-based, human; settings: FANCD2sh- and FANCJsh SCC1 cells, phalloidin stain
Excerpt: (§3) Percentages of cells in G2/M are indicated. […] Images were taken at the same magnification and exposure. […] Errors bars represent standard deviation; ** p<0.001; *** p<0.0001 (ANOVA).

Rac1 = assay: Rac1-GTP pulldown assay in SCC1 cells; type: cell-based, human
Excerpt: Members of the small GTPase Rho, Rac and CDC42 family of signaling molecules were key players in normal and transformed cell morphology, adhesion, motility, and invasion (46). […] Because Rac1 activation is reported to produce intercellular projections (47-48) similar to the ones noted in FA-deficient cells (FIG. 22E), the inventors carried out Rac1-GTP pull-downs to determine whether Rac1 is activated by FA pathway loss; FANCJsh SCC1 cells were used, since pDNA-PK activation in these cells was robust (FIG. 24A). […] To examine the requirement for Rac1 in cytoskeletal re-organization and invasion of FA-deficient cells, the specific Rac1 small molecule inhibitor NSC23766 was used (49-50). […] Thus, FA pathway loss leads to downstream activation of pDNA-PK and Rac1, and both are required for cytoskeletal rearrangements and invasion.

pDNA-PKcs = biological target: T1, pDNA-PKcs (Homo sapiens, UniProt P78527); assay: Western blot of pDNA-PKcs in SCC1 cells after bleomycin pulse; type: cell-based; settings: 10 uM NU7026; 30-minute bleomycin pulse; FANCD2sh-, FANCJsh- and control (NTsh) SCC1 cells
T1 construct: Western blot analysis of NTsh-, FANCD2sh- and FANCJsh-treated SCC1 cells that were subjected to a 30-minute pulse of bleomycin; endogenous in cells; host or cells: UM-SCC1 (SCC1) HNSCC cells carrying NTsh, FANCD2sh or FANCJsh lentiviral shRNA
Excerpt: DNA-PK/Rac1 signaling occurred in response to FA pathway loss and was required for cytoskeletal re-organization and invasion. […] These defects are accompanied, under some circumstances, by a corresponding increase in the activity of error-prone non-homologous end joining (NHEJ) pathway components (27-28). Repair by NHEJ requires activation of the catalytic subunit of DNA-dependent protein kinase (DNA-PKcs) and subsequent autophosphorylation on serine […] (pDNA-PKcs). The inventors first determined whether DNA-PKcs signaling was activated and involved in FA-associated invasion. FANCD2sh- and FANCJsh-treatment of SCC1 cells stimulated pDNA-PKcs.

FA-deficient SCC = assay: Invasion of FA-deficient SCC, rescue by supplementation; type: cell-based
SCC1 cells [6] = assay: Flow cytometry-based cell-cycle analysis after melphalan, SCC1 cells; parameters: species or system human; settings: FANCD2-deficient SCC1 cells compared to NTsh
Excerpt: as §3
FA pathway loss leads to cytoskeletal and membrane aberrations in HNSCC cells. A significant proportion of sporadic HNSCCs harbor somatic mutations in FA and FA-related genes (33). To test for biological effects of FA pathway loss, knockdown models of HNSCC were created using published lentiviral shRNA vectors (15, 41). First, the HPV-negative (UM-)SCC1 cell line was knocked down for FANCA, FANCD2, and FANCJ. Western blot analyses verified specific and efficient FA protein depletion (FIG. 22A). To verify that FANCD2 depletion induced classical FA phenotypes, DNA crosslinker sensitivity was quantified. […] This was similar to FA lymphoblasts and fibroblasts that also respond to melphalan with G2/M cell-cycle arrest (42-43). FANCA- and FANCJ-deficient SCC1 cells responded similarly, as did UMSCC6 and UMSCC47 HNSCC cell lines depleted for FA proteins (data not shown). Thus, FA knockdown in HPV-positive and -negative […] cells induced the classic FA DNA-crosslinker sensitivity phenotype.

Molecule: CCCCN1C[C@H](O)[C@@H](O)[C@H](O)[C@H]1CO [NB-DNJ, N-butyldeoxynojirimycin]
- growth of SCC1 cells (SCC1 cells [1]; NB-DNJ): did not affect the growth
- growth of SCC47 cells (SCC47 cells [2]): did not affect the growth
- invasion driven by FA loss, SCC1 cells (SCC1 cells [3]; 100 uM NB-DNJ, 48 hrs, NTsh, FANCD2sh, FANCJsh): selectively inhibited invasion driven by FA loss
- invasion driven by FA loss, SCC47 cells (SCC47 cells [4]): selectively inhibited invasion driven by FA loss
- GM3 levels (GM3): reduced GM3 levels; also recorded: successfully repressed GM3 levels

Molecule: CCN(CC)CCCC(C)Nc1nc(C)cc(Nc2ccc3nc(C)cc(N)c3c2)n1 (centres unmarked) [NSC23766]
- growth of FANCD2sh-treated SCC1 cells (SCC1 cells [1]): did not appear to affect growth
- invasion of FANCD2sh-treated SCC1 cells (SCC1 cells [3]): suppressed cell invasion
- invasion of control cells (SCC1 cells [3]; NTsh control SCC1 cells): did affect invasion of control cells
- number of long intercellular projections (SCC1 cells [5]): reduced the number of long intercellular projections

Molecule: O=c1cc(N2CCOCC2)oc2c1ccc1ccccc12 [NU7026]
- growth of FANCD2sh-treated SCC1 cells (SCC1 cells [1]): did not appear to affect growth
- active Rac1 (Rac1-GTP) in FA-deficient cells (Rac1; FANCJsh SCC1 cells): significantly lowered active Rac1
- Rac1 activity in control cells (Rac1; NTsh control SCC1 cells): did not affect Rac1 activity
- invasion of FANCD2sh-treated SCC1 cells (SCC1 cells [3]): suppressed invasion
- pDNA-PKcs level (Western blot) (pDNA-PKcs): undetectable pDNA-PKcs

Molecule: CC(C)CCC[C@@H](C)[C@H]1CC[C@H]2[C@@H]3CC=C4C[C@@H](O)CC[C@]4(C)[C@H]3CC[C@]12C [cholesterol]
- invasion of FA-deficient SCC (FA-deficient SCC): rescued

Molecule: Oc1ccc([C@H]2COc3cc(O)ccc3C2)cc1 [equol]
- invasion of FA-deficient SCC (FA-deficient SCC): rescued

Molecule: N[C@@H](Cc1ccc(N(CCCl)CCCl)cc1)C(=O)O [melphalan]
- proportion of cells in G2/M after melphalan (SCC1 cells [6]): increased proportion of cells in G2/M

Molecule: O=c1c(O)c(-c2ccc(O)c(O)c2)oc2cc(O)cc(O)c12 [quercetin]
- invasion of FA-deficient SCC (FA-deficient SCC): rescued

Molecule: NeuACα2-3Galβ1-4Glcβ1-1ceramide [GM3]
- invasion of SCC1 cells with GM3 in cell media (SCC1 cells [3]; GM3 50 uM): doubled the invasion
- SCC1 invasion on GM3 addition to culture media (SCC1 cells [3]; particularly in FA-proficient cells, data not shown): stimulated SCC1 invasion
